Results taken from patent US9868748B2, “Thiazolopyrrolidine inhibitors of ROR- γ” (Vitae Pharmaceuticals, Inc., priority 2013, dated 2018).
pKi: −log10 of the molar value.

Target: recombinant RORγ Ligand Binding Domain (LBD) protein (Homo sapiens (Human), UniProt P51449)
Assay: Radio-Ligand RORγ Binding Assay (Assay 1)
Conditions: competition with 25-hydroxy [26,27-3H]-cholesterol, SPA; Table 9; read-out: RORγ Binding Ki Range*
Description: Radio-Ligand RORγ Binding Assay (Assay 1)
Compounds of the present invention were tested for ability to bind to RORγ in a cell-free competition assay with commercially available radio-ligand (RL), 25-hydroxy [26,27-^3H]— cholesterol (PerkinElmer, Cat. # NET674250UC), for a ligand binding site on a recombinant RORγ Ligand Binding Domain (LBD) protein expressed as a 6×His-Glutathione-S-Transferase (GST) fusion (“6×His” disclosed as SEQ ID NO: 2). The assay was performed in 96-well SPA plates (PerkinElmer, Cat. #1450-401) in 50 mM HEPES buffer, pH 7.4, containing 150 mM NaCl, 5 mM MgCl2, 10% (v/v) glycerol, 2 mM CHAPS, 0.5 mM β-octylglucopyranoside and 5 mM DTT. Tested compounds were dissolved in DMSO, and semi-log (3.162×) serial dilutions of the compounds were prepared in the same solvent. Two μL of the DMSO solutions were mixed with 28 μL of 8.6 nM 25-hydroxy [26,27-^3H]— cholesterol and 50 μL of 24 nM RORγ LBD. The plate was shaken at 700 rpm for 20 min and incubated for 10 min at rt, after which 40 μL of poly-Lys YSi SPA beads (PerkinElmer, Cat. # RPNQ0010) were added to achieve 50 μg of the beads per well. The plate was incubated on an orbital shaker for 20 min and then for 10 min without agitation at rt. SPA signal for tritium beta radiation was registered on PerkinElmer Microbeta plate reader. Percent inhibition values were calculated based on the high signal obtained with DMSO control and the low signal observed with 10 μM standard RORγ inverse agonist T0901317 (SigmaAldrich, Cat. # T2320). The percent inhibition vs. concentration data were fit into a four-parameter model, and […] values were calculated from the fit as the concentrations corresponding to the inflection points on the dose-response curves. Inhibitory constants (Ki) were calculated using the following equation, where [RL] is the concentration in the assay and KD is a dissociation constant of 25-hydroxy [26,27-^3H]-cholesterol: […]

recombinant RORγ Ligand Binding Domain (LBD) protein, sequence (P51449 269-508): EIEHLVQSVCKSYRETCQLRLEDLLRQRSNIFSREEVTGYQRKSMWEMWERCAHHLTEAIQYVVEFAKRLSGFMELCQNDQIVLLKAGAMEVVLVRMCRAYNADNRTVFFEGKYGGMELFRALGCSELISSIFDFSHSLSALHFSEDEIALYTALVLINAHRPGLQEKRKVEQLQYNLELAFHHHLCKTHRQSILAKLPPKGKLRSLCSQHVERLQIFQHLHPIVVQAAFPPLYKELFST

pKi | SMILES
< 6.00 | CC(C)[C@H]1c2nc(NC(=O)Cc3ccc(S(C)(=O)=O)cc3)sc2CN1Cc1ccc(=O)n(C(F)F)n1
6.00 to 7.00 | CCS(=O)(=O)c1ccc(CC(=O)Nc2nc3c(s2)CN([C@@H](C)Cc2ccc(F)cc2)[C@@H]3C(C)C)cc1 (single isomer, unassigned)
6.00 to 7.00 | CCS(=O)(=O)c1ccc(CC(=O)Nc2nc3c(s2)CN(Cc2nccc(C(F)(F)F)n2)[C@@H]3C(C)C)cc1
6.00 to 7.00 | CCS(=O)(=O)c1ccc(CC(=O)Nc2nc3c(s2)CN(CC2CCNC(=O)C2)[C@H]3C(C)C)cc1 (some centres unmarked)
6.00 to 7.00 | Cc1ncc(CN2Cc3sc(NC(=O)Cc4ccc(S(C)(=O)=O)cc4)nc3[C@@H]2C(C)C)cn1
< 6.00 | CCS(=O)(=O)c1ccc(CC(=O)Nc2nc3c(s2)CN(c2ncc(-c4ccc(=O)n(C)c4)cn2)[C@H]3C(C)C)cc1
6.00 to 7.00 | CC(C)[C@@H]1c2nc(NC(=O)Cc3ccc(S(C)(=O)=O)cc3)sc2CN1Cc1ccc(Br)cc1
6.00 to 7.00 | CCS(=O)(=O)c1ccc(CC(=O)Nc2nc3c(s2)CN(Cc2ccc(C#N)cn2)[C@@H]3C(C)C)cc1
6.00 to 7.00 | CC(C)[C@H]1c2nc(C(=O)NCc3ccc(S(C)(=O)=O)cc3)sc2CN1Cc1cnc(C(F)(F)F)nc1
6.00 to 7.00 | CCS(=O)(=O)c1ccc(CC(=O)Nc2nc3c(s2)CN(Cc2cc[n+]([O-])cc2)[C@H]3C(C)C)cc1
6.00 to 7.00 | CCS(=O)(=O)c1ccc(CC(=O)Nc2nc3c(s2)CN(Cc2ccc(C(F)(F)F)nc2)[C@@H]3C(C)C)cc1
6.00 to 7.00 | CC(C)[C@H]1c2nc(NC(=O)Cc3ccc(S(C)(=O)=O)cc3)sc2CN1c1ncc(C#N)c(Cl)n1
6.00 to 7.00 | CC[C@@H]1c2nc(NC(=O)Cc3ccc(S(=O)(=O)CC)cc3)sc2CN1Cc1ccc(F)cn1
6.00 to 7.00 | CC(C)[C@H]1c2nc(C(=O)NCc3ccc(S(C)(=O)=O)cc3)sc2CN1Cc1ccc(C#N)cn1
6.00 to 7.00 | Cc1ccc(CN2Cc3sc(NC(=O)Cc4ccc(S(C)(=O)=O)cc4)nc3[C@@H]2C(C)C)nn1
6.00 to 7.00 | CCOC(=O)c1cnc(N2Cc3sc(NC(=O)Cc4ccc(S(C)(=O)=O)cc4)nc3[C@@H]2C(C)C)nc1C(F)(F)F

The next lines start with the compound.

SMILES | pKi
CCOC(=O)c1cnc(N2Cc3sc(NC(=O)Cc4ccc(S(=O)(=O)CC)cc4)nc3C2(C)C)nc1C(F)(F)F | 6.00 to 7.00
CCS(=O)(=O)c1ccc(CNC(=O)c2nc3c(s2)CN(c2ncc(C(F)(F)F)cn2)[C@H]3C(C)C)cc1 | < 6.00
CC[C@@H]1c2nc(NC(=O)Cc3ccc(S(C)(=O)=O)cc3)sc2CN1[C@@H](C)c1ccc(OC(F)(F)F)cc1 (single isomer, unassigned) | 6.00 to 7.00
CC(C)[C@H]1c2nc(C(=O)NCc3ccc(S(C)(=O)=O)cc3)sc2CN1Cc1ncc(Cl)cn1 | 6.00 to 7.00
CC(C)[C@H]1c2nc(NC(=O)Cc3ccn4ccnc4c3)sc2CN1Cc1ccc(C(F)(F)F)cc1 | 6.00 to 7.00
CCS(=O)(=O)c1ccc(CC(=O)Nc2nc3c(s2)CN(CC2CCOCC2)[C@@H]3C(C)C)cc1 | 6.00 to 7.00
CC[C@H]1c2nc(NC(=O)Cc3ccc(C(=O)OC)cc3)sc2CN1Cc1ccc(Cl)cc1 | 6.00 to 7.00
CCS(=O)(=O)c1ccc(CNC(=O)c2nc3c(s2)CN(Cc2ccc(-c4nnn[nH]4)cc2)[C@H]3C(C)C)cc1 | 6.00 to 7.00
CCS(=O)(=O)c1ccc(CNC(=O)c2nc3c(s2)CN(c2ncc(CO)c(C(F)(F)F)n2)[C@H]3C(C)C)cc1 | < 6.00
CCS(=O)(=O)c1ccc(CC(=O)Nc2nc3c(s2)CN(Cc2ccc(S(C)(=O)=O)cc2)C3(C)C)cc1 | < 6.00
CCS(=O)(=O)c1ccc(CNC(=O)c2nc3c(s2)CN(CC2CNCCO2)[C@H]3C(C)C)cc1 (some centres unmarked) | < 6.00
Cc1cc(C(F)(F)F)nc(N2Cc3sc(Cc4ccc(-c5nn[nH]n5)cc4C)nc3[C@H]2C(C)C)n1 | 6.00 to 7.00
CC[C@@H]1c2nc(NC(=O)Cc3ccc(S(C)(=O)=O)cc3)sc2CN1Cc1ccc(OC(F)(F)F)cc1F | 6.00 to 7.00
Cc1cc(C(F)(F)F)nc(N2Cc3sc(-c4ccc(C(F)(F)F)nc4)nc3[C@H]2C(C)C)n1 | < 6.00
CCS(=O)(=O)c1ccc(CC(=O)Nc2nc3c(s2)CN(c2ncc(CO)c(C(F)(F)F)n2)[C@H]3C(C)C)cc1 | 6.00 to 7.00
CC(C)[C@H]1c2nc(NC(=O)Cc3ccc(F)cc3F)sc2CN1Cc1ccc(Cl)cc1 | 6.00 to 7.00
